# Test results taken from EPA's ToxValDB 9.5.
# Experiments:
# Rattus norvegicus = conditions: subchronic; duration: 90 days; oral; diet; M; Crl:CD(SD) BR; Body Weight Changes: Weight gain decrease + Absolute Organ Weight: Liver increase + Relative Organ Weight: Liver increase + Histopathology: …
# Labeo boga = conditions: whole body
# Monkey [1] = conditions: short-term; duration: 29 days; oral; capsule; M; Cynomolgus; blood: basophils + blood: eosinophils + blood: lymphocytes + blood: monocytes + blood: reticulocytes + blood: segmented neutrophils + blood…
# Monkey [2] = conditions: oral
# Oryctolagus sp. = conditions: acute, dermal; for LOAEL: duration: 1 days
# Neovison sp. = conditions: repeat dose other; oral; Mink
# Megascops sp. = conditions: oral
# [3] = short-term, duration: 7 day, M, Medaka, liver IL-1Beta/Beta-actin mRNA ratio + liver IL-6/Beta-actin mRNA ratio
# [4] = short-term, duration: 21 day, M/F, mRNA expression levels of IgM in spleen + mRNA expression levels of IL-1 beta in spleen + mRNA expression levels of myd88 in spleen
# [5] = chronic, duration: 26 weeks, M, Cynomolgus, Body Weight: 12% decrease by week 10
# [6] = chronic, duration: 26 weeks, M, Cynomolgus, Endocrine: Significant decrease in serum TT4 (27-35%) and FT4 (30-38%)
compound,measurement,setting,value
O=C([O-])C(F)(F)C(F)(F)C(F)(F)C(F)(F)C(F)(F)C(F)(F)C(F)(F)F.[NH4+] [Ammonium perfluorooctanoate],NOAEL,Rattus norvegicus,0.096 mg/kg-day
same,LOEL,Labeo boga; [3],50 mg/L
same,NOEL,Labeo boga; [3],10 mg/L
same,LOEL,"Labeo boga; short-term, duration: 7 day, M, Medaka, liver TNF-alpha/Beta-actin mRNA ratio",10 mg/L
same,LOEL,"Labeo boga; short-term, duration: 15 day, M/F, Medaka, c-type lysozyme mRNA expression",1 mg/L
same,NOEL,"Labeo boga; short-term, duration: 15 day, M/F, Medaka, complement component C3-1 mRNA expression",1 mg/L
same,LOEL,"Labeo boga; short-term, duration: 21 day, M/F, Atlantic Salmon, cortisol",0.1 mg/L
same,LOEL,"Labeo boga; short-term, duration: 21 day, M/F, mRNA expression levels of IgD in spleen + mRNA expression levels of IgZ in spleen + mRNA expression levels of IL-21 in spleen + mRNA …",0.05 mg/L
same,LOEL,Labeo boga; [4],0.1 mg/L
same,NOEL,Labeo boga; [4],0.05 mg/L
same,LOEL,"Labeo boga; subchronic, duration: 48 day, M/F, Atlantic Salmon, cortisol",0.1 mg/L
same,NOEL,"Labeo boga; subchronic, duration: 48 day, M/F, Atlantic Salmon, fresh weight + length + thymus: thymus somatic index + thymus: thymus volume",0.1 mg/L
same,LOEL,"Labeo boga; subchronic, duration: 56 day, M/F, Atlantic Salmon, cortisol",0.1 mg/L
same,NOEL,Monkey [1],20 mg/kg-day
same,LOAEL,Monkey [2]; [5],20 mg/kg-day
same,NOAEL,Monkey [2]; [5],10 mg/kg-day
same,LOAEL,Monkey [2]; [6],10 mg/kg-day
same,NOAEL,Monkey [2]; [6],3 mg/kg-day
same,LOAEL,"Monkey [2]; chronic, duration: 26 weeks, M, Cynomolgus, Hepatic: 36% increase in absolute liver weight at ?3 mg/kg/day / increased serum triglyceride levels at 30/20 mg/kg/day",3 mg/kg-day
same,NOAEL,"Monkey [2]; chronic, duration: 26 weeks, M, Cynomolgus, Immunotoxicological: No histological alterations + Neurological: No histological alterations + Reproductive: No histological alterations",20 mg/kg-day
same,LOAEL,"Monkey [2]; short-term, duration: 2 weeks, M/F, Rhesus, Death: Unspecified number out of four died on week 2",100 mg/kg-day
same,NOAEL,"Monkey [2]; subchronic, duration: 30 days, M, Cynomolgus, Endocrine: No alterations in serum levels of thyroid hormones and TSH and histopathology of adrenals + Reproductive: No alterations in serum…",20 mg/kg-day
same,NOAEL,"Monkey [2]; subchronic, duration: 90 days, M/F, Rhesus",30 mg/kg-day
same,LOAEL,"Monkey [2]; subchronic, duration: 90 days, M/F, Rhesus, Body Weight: 33% body weight loss by week 6 + Death: One male and two females died during weeks 7-12",30 mg/kg-day
same,NOAEL,"Monkey [2]; subchronic, duration: 90 days, M/F, Rhesus, Body Weight: 33% body weight loss by week 6 + Gastrointestinal: Emesis + Immunotoxicological: Atrophy of lymphoid follicles in spleen and …",10 mg/kg-day
same,LOAEL,"Monkey [2]; subchronic, duration: 90 days, M/F, Rhesus, Gastrointestinal: Emesis + Immunotoxicological: Atrophy of lymphoid follicles in spleen and lymph nodes + Neurological: Hypoactivity and …",30 mg/kg-day
same,NOAEL,"Monkey [2]; subchronic, duration: 90 days, M/F, Rhesus, Reproductive: No histological alterations in testes or ovaries",100 mg/kg-day
same,LOAEL,"Oryctolagus sp.; Albino, Ocular: Moderate eye irritation",100 mg
same,LOAEL,"Oryctolagus sp.; M, New Zealand, Death: 14-day LD50",4300 mg/kg-day
same,NOAEL,"Oryctolagus sp.; duration: 24 hours, Albino",500 mg
[F-].[Na+] [Sodium fluoride],LOAEL,Neovison sp.,52.8 mg/kg-day
same,NOAEL,Neovison sp.,31.4 mg/kg-day
same,LOAEL,Megascops sp.,32 mg/kg-day
same,NOAEL,Megascops sp.,7.8 mg/kg-day
